The IC50 is the midpoint of a concentration-inhibition curve.

For the experiment, the target named is human GPR17 short isoform (Homo sapiens (Human), UniProt Q13304). Put plainly: GPR17 cAMP assay (hGPR17 cAMP, antagonist mode against EC80 of MDL29,951). It counts as cell-based. Conditions: CHO-K1 cells stably expressing human GPR17 short isoform; EC80 of agonist MDL29,951; forskolin 15 μM. Summed up: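 cAMP was read by competitive TR-FRET after a 30 min room-temperature stimulation: antagonists plus EC80 MDL29,951 and 0.5 mM IBMX, followed 5 min later by 15 μM forskolin. Cells were CHO-K1 with stable human GPR17 short isoform in HBSS/HEPES/BSA, pH 7.4; percent activity versus reference antagonist fitted sigmoidally.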
Chain of human GPR17 short isoform (Q13304 29-367): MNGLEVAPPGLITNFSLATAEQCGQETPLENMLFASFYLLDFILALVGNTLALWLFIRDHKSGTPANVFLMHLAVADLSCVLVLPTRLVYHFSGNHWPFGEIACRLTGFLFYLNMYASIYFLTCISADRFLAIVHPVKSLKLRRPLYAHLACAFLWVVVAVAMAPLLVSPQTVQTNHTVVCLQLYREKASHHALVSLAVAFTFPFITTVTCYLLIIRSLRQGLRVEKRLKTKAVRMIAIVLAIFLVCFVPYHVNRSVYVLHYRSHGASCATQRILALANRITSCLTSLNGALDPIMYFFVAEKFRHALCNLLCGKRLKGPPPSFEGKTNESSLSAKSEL
`COc1nc(NS(=O)(=O)c2c[nH]c3cc(Cl)ccc23)ncc1OC(F)(F)C(F)Cl` (stereo not drawn) [Example 44, 6-chloro-N-[5-(2-chloro-1,1,2-trifluoro-ethoxy)-4-methoxy-pyrimidin-2-yl]-1H-indole-3-sulfonamide]: the IC50 is 131 nM.

`CCOc1cnc(NS(=O)(=O)c2c[nH]c3cc(Cl)ccc23)nc1OC` [Example 6, 6-chloro-N-(5-ethoxy-4-methoxy-pyrimidin-2-yl)-1H-indole-3-sulfonamide]: the half-inhibitory concentration (IC50) was 129 nM.

For `COc1nc(NS(=O)(=O)c2c[nH]c3nc(Cl)ccc23)nc(OC)c1Br` [Example 31, N-(5-bromo-4,6-dimethoxy-pyrimidin-2-yl)-6-chloro-1h-pyrrolo[2,3-b]pyridine-3-sulfonamide], the IC50 was 76 nM.

In the case of `COc1nc(NS(=O)(=O)c2c[nH]c3cc(Br)ccc23)nc(OC)c1CCC#N` [Example 93, 6-bromo-N-[5-(2-cyanoethyl)-4,6-dimethoxy-pyrimidin-2-yl]-1H-indole-3-sulfonamide], the IC50 is 10 nM.

For the compound `COc1nc(NS(=O)(=O)c2c[nH]c3cc(Cl)ccc23)nc(Cl)c1OC` [Example 75, 6-chloro-N-(4-chloro-5,6-dimethoxy-pyrimidin-2-yl)-1H-indole-3-sulfonamide], the IC50 was 946 nM.

Take `COc1nc(NS(=O)(=O)c2csc3nc(C(F)F)ccc23)ncc1OCCF` [Example 165, 6-(difluoromethyl)-N-[5-(2-fluoroethoxy)-4-methoxy-pyrimidin-2-yl]thieno[2,3-b]pyridine-3-sulfonamide]: the IC50 worked out at 1110 nM.

Take `COc1nc(NS(=O)(=O)c2c[nH]c3cc(Cl)ccc23)ncc1COC(F)F` [Example 262, 6-chloro-N-[5-(difluoromethoxymethyl)-4-methoxy-pyrimidin-2-yl]-1H-indole-3-sulfonamide]: the IC50 came out at 40 nM.

Compound `COc1nc(NS(=O)(=O)c2c[nH]c3cc(Cl)ccc23)nc(OC)c1CC(F)F` [Example 60, 6-chloro-N-[5-(2,2-difluoroethyl)-4,6-dimethoxy-pyrimidin-2-yl]-1H-indole-3-sulfonamide] came in with an IC50 of 8 nM.

Compound `COc1nc(NS(=O)(=O)c2c[nH]c3cc(Cl)ccc23)nc(OC)c1OCF` [Example 51, 6-chloro-N-[5-(fluoromethoxy)-4,6-dimethoxy-pyrimidin-2-yl]-1H-indole-3-sulfonamide] registered an IC50 of 94 nM.

As for `CCCc1cnc(NS(=O)(=O)c2c[nH]c3cc(Cl)ccc23)nc1OC` [Example 45, 6-chloro-N-(4-methoxy-5-propyl-pyrimidin-2-yl)-1H-indole-3-sulfonamide], the IC50 was 82 nM.

With `COc1nc(NS(=O)(=O)c2c[nH]c3nc(Cl)ccc23)ncc1OC(F)F` [Example 119, 6-chloro-N-[5-(difluoromethoxy)-4-methoxy-pyrimidin-2-yl]-1H-pyrrolo[2,3-b]pyridine-3-sulfonamide], the IC50 came to 161 nM.

`COc1nc(NS(=O)(=O)c2c[nH]c3cc(Cl)ccc23)nc(OCF)c1Br` [Example 83, N-[5-bromo-4-(fluoromethoxy)-6-methoxy-pyrimidin-2-yl]-6-chloro-1H-indole-3-sulfonamide] came in with an IC50 of 78 nM.

With `COc1nc(NS(=O)(=O)c2c[nH]c3cc(Cl)ccc23)nc(OC)c1Cl` [Example 11, 6-chloro-N-(5-chloro-4,6-dimethoxy-pyrimidin-2-yl)-1H-indole-3-sulfonamide], the concentration for half-maximal inhibition (IC50) stood at 91 nM.

For `COc1nc(NS(=O)(=O)c2c[nH]c3cc(Cl)ccc23)nc(C(F)F)c1Br` [Example 84, N-[5-bromo-4-(difluoromethyl)-6-methoxy-pyrimidin-2-yl]-6-chloro-1H-indole-3-sulfonamide], the IC50 worked out at 521 nM.

With `COc1nc(NS(=O)(=O)c2c[nH]c3cc(Cl)ccc23)ncc1OCC(F)F` [Example 135, 6-chloro-N-[5-(2,2-difluoroethoxy)-4-methoxy-pyrimidin-2-yl]-1H-indole-3-sulfonamide], the IC50 was 187 nM.

The compound `COc1nc(NS(=O)(=O)c2c[nH]c3nc(Cl)ccc23)nc(OC)c1CC(F)F` [Example 120, 6-chloro-N-[5-(2,2-difluoroethyl)-4,6-dimethoxy-pyrimidin-2-yl]-1H-pyrrolo[2,3-b]pyridine-3-sulfonamide] yielded an IC50 of 40 nM.

In the case of `COc1ccc2c(S(=O)(=O)Nc3nc(OC)c(C)c(OC)n3)c[nH]c2c1` [Example 273, N-(4,6-dimethoxy-5-methyl-pyrimidin-2-yl)-6-methoxy-1h-indole-3-sulfonamide], the IC50 worked out at 128 nM.

With `COc1nc(NS(=O)(=O)c2c[nH]c3c(F)c(Cl)ccc23)nc(OC)c1CCC#N` [Example 218, 6-chloro-N-[5-(2-cyanoethyl)-4,6-dimethoxy-pyrimidin-2-yl]-7-fluoro-1H-indole-3-sulfonamide], the IC50 amounted to 14 nM.

For `COc1nc(NS(=O)(=O)c2c[nH]c3c(OC)c(Br)ccc23)ncc1CC(F)F` [Example 196, 6-bromo-N-[5-(2,2-difluoroethyl)-4-methoxy-pyrimidin-2-yl]-7-methoxy-1H-indole-3-sulfonamide], the half-maximal inhibitory concentration (IC50) is 16 nM.

As for `COc1nc(NS(=O)(=O)c2c[nH]c3c(F)c(C(F)F)ccc23)ncc1CC(F)F` [Example 248, N-[5-(2,2-difluoroethyl)-4-methoxy-pyrimidin-2-yl]-6-(difluoromethyl)-7-fluoro-1H-indole-3-sulfonamide], the IC50 came to 367 nM.

In the case of `COc1nc(NS(=O)(=O)c2c[nH]c3nc(Cl)ccc23)nc(OC)c1CCC#N` [Example 122, 6-chloro-N-[5-(2-cyanoethyl)-4,6-dimethoxy-pyrimidin-2-yl]-1H-pyrrolo[2,3-b]pyridine-3-sulfonamide], the IC50 was 36 nM.

Regarding `COc1nc(NS(=O)(=O)c2c[nH]c3nc(C)ccc23)nc(OC)c1OCC#N` [Example 284, N-[5-(Cyanomethoxy)-4,6-Dimethoxy-Pyrimidin-2-Yl]-6-Methyl-1H-Pyrrolo[2,3-b]Pyridine-3-Sulfonamide], the IC50 amounted to 273 nM.

On to `COc1nc(NS(=O)(=O)c2c[nH]c3c(SC(F)F)c(Cl)ccc23)ncc1CC(F)F` [Example 199, 6-chloro-N-[5-(2,2-difluoroethyl)-4-methoxy-pyrimidin-2-yl]-7-(difluoromethylsulfanyl)-1H-indole-3-sulfonamide], for which the IC50 is 8 nM.

On to `CCCc1ccc2c(S(=O)(=O)Nc3ncc(CC(F)F)c(OC)n3)c[nH]c2c1` [Example 153, N-[5-(2,2-difluoroethyl)-4-methoxypyrimidin-2-yl]-6-propyl-1H-indole-3-sulfonamide], for which the IC50 was determined as 353 nM.

The compound `COc1nc(NS(=O)(=O)c2c[nH]c3nc(Cl)ccc23)ncc1OC(F)(F)CF` [Example 220, 6-chloro-N-[4-methoxy-5-(1,1,2-trifluoroethoxy)pyrimidin-2-yl]-1H-pyrrolo[2,3-b]pyridine-3-sulfonamide] registered an IC50 of 27 nM.

`COc1nc(NS(=O)(=O)c2c[nH]c3cc(Cl)ccc23)nc(OC2CC2)c1Br` [Example 71, N-[5-bromo-4-(cyclopropoxy)-6-methoxy-pyrimidin-2-yl]-6-chloro-1H-indole-3-sulfonamide] registered a concentration for half-maximal inhibition (IC50) of 11500 nM.

Regarding `COc1nc(NS(=O)(=O)c2c[nH]c3cc(Br)ccc23)nc(OC)c1OCCF` [Example 91, 6-bromo-N-[5-(2-fluoroethoxy)-4,6-dimethoxy-pyrimidin-2-yl]-1H-indole-3-sulfonamide], the IC50 came to 30 nM.

In the case of `COc1nc(NS(=O)(=O)c2csc3c(F)c(Cl)ccc23)ncc1CC(F)F` [Example 162, 6-chloro-N-[5-(2,2-difluoroethyl)-4-methoxy-pyrimidin-2-yl]-7-fluoro-benzothiophene-3-sulfonamide], the IC50 was found to be 248 nM.

`COc1nc(NS(=O)(=O)c2c[nH]c3cc(Cl)ccc23)nc(C)c1OCC(F)F` [Example 20, 6-chloro-N-[5-(2,2-difluoroethoxy)-4-methoxy-6-methyl-pyrimidin-2-yl]-1H-indole-3-sulfonamide] showed a concentration for half-maximal inhibition (IC50) of 399 nM.

`COc1nc(NS(=O)(=O)c2c[nH]c3cc(F)ccc23)nc(OC)c1OCC(F)F` [Example 257, N-[5-(2,2-difluoroethoxy)-4,6-dimethoxy-pyrimidin-2-yl]-6-fluoro-1H-indole-3-sulfonamide] came in with an IC50 of 84 nM.

For the compound `CC#Cc1cnc(NS(=O)(=O)c2c[nH]c3cc(Cl)ccc23)nc1OC` [Example 29, 6-chloro-n-(4-methoxy-5-prop-1-ynyl-pyrimidin-2-yl)-1h-indole-3-sulfonamide], the IC50 was found to be 80 nM.

On to `COc1nc(NS(=O)(=O)c2c[nH]c3cc(Cl)ccc23)ncc1CC(F)(F)F` [Example 177, 6-chloro-N-[4-methoxy-5-(2,2,2-trifluoroethyl)pyrimidin-2-yl]-1H-indole-3-sulfonamide], for which the IC50 came to 162 nM.

`COc1nc(NS(=O)(=O)c2csc3nc(Br)ccc23)ncc1OC(F)(F)CF` [Example 147, 6-bromo-N-[4-methoxy-5-(1,1,2-trifluoroethoxy)pyrimidin-2-yl]thieno[2,3-b]pyridine-3-sulfonamide] displayed an IC50 of 104 nM.

`COc1nc(NS(=O)(=O)c2c[nH]c3c(F)c(Cl)ccc23)ncc1OCCF` [Example 2, 6-chloro-7-fluoro-N-[5-(2-fluoroethoxy)-4-methoxy-pyrimidin-2-yl]-1H-indole-3-sulfonamide] gave an IC50 of 36 nM.

Regarding `COc1nc(NS(=O)(=O)c2c[nH]c3cc(Cl)ccc23)nc(OC)c1C` [Example 17, 6-chloro-N-(4,6-dimethoxy-5-methyl-pyrimidin-2-yl)-1H-indole-3-sulfonamide], the IC50 amounted to 19 nM.

On to `COc1nc(NS(=O)(=O)c2c[nH]c3nc(Br)ccc23)nc(OC)c1CC(F)F` [Example 111, 6-bromo-N-[5-(2,2-difluoroethyl)-4,6-dimethoxy-pyrimidin-2-yl]-1H-pyrrolo[2,3-b]pyridine-3-sulfonamide], for which the IC50 was 13 nM.

For the origin of these results see patent publication US20240025883A1, “PYRIMIDIN-2-YL SULFONAMIDE DERIVATIVES” (Hoffmann-La Roche Inc., priority 2021, published 2024).
